The values that follow come from publication PMC5476563, “Structure-Guided Design of C4-alkyl-1,4-dihydro-2H-pyrimido[4,5-d][1,3]oxazin-2-ones as Potent and Mutant-Selective Epidermal Growth Factor Receptor (EGFR) L858R/T790M Inhibitors” (Scientific Reports, 2017).

Values joined by “and” are separate entries in the source; they are usually repeats but may differ in a detail not shown here. Identical values can stand only once.

One data set addresses T1, EGFR^WT (Homo sapiens, UniProt P00533).
T1 construct: Kinases domain of EGFR^L858R/T790M and EGFR^WT were expressed by using the Bac-to-Bac™ baculovirusexpression system; made in house
Put plainly: ELISA-based EGFR-TK enzymatic activity assay (WT). Format: biochemical. Conditions: mean ± SD, at least three determinations, read-out: Enzyme Inhibitory Activity (IC50, nM) WT. As to the method: In vitro antiproliferation activities of the compounds were examined through using the sulforhodamine B (SRB) colourimetric assay.
(§1) The enzymatic activity assay was evaluated by using the well-established ELISA-based assay. […] The detailed experiment was performed according to the published literature.
(ELISA stands for enzyme-linked immunosorbent assay.)

Data set [1] addresses T2, EGFR^L858R/T790M (Homo sapiens, UniProt P00533, L858R/T790M).
T2 construct: Kinases domain of EGFR^L858R/T790M and EGFR^WT were expressed by using the Bac-to-Bac™ baculovirusexpression system; made in house
Briefly: ELISA-based EGFR-TK enzymatic activity assay (dual mutant). The data set is classed as biochemical. Conditions: for IC50: ELISA-based EGFR-TK assay, mean ± SD, at least three determinations, read-out: Enzyme Inhibitory Activity (IC50, nM) L858R/T790M; for Enzyme Selectivity WT:DM: ratio IC50 EGFR^WT : EGFR^L858R/T790M. The method, then:
as §1

The subject of data set [2] is A431 cells (expressing EGFR^WT). Briefly: Sulforhodamine B (SRB) cellular antiproliferation assay, A431. Format: cell-based. Particulars: Homo sapiens, A-431, 72 h, mean ± SD, read-out: Cellular Antiproliferative Activity (IC50, nM) A431. The text has this:
(§2) Having explored potent inhibition and obvious selectivity of EGFR kinases by introduction of alkyl groups to C4-position to the 1,4-dihydro-2H-pyrimido[4,5-d][1,3]oxazin-2-one ring, we subsequently evaluated their anti-proliferative activities in H1975 cells (expressing EGFR^L858R/T790M) and A431 cells (expressing EGFR^WT) in vitro by using the sulforhodamine B (SRB) colourimetric assay. The anti-proliferative activities of our designed compounds against H1975 and A431 cell lines range from 135 nM to more than 9 μM and from 554 nM to more than 7 μM, respectively (Fig. 5). Additionally, the selectivity at the cellular level is from 0.7 to 9.4-fold.
(§3) In vitro cellular antiproliferation activities of the designed compounds against H1975 and A431 cell lines were examined by using the well-established sulforhodamine B (SRB) colorimetric assay. The detailed experiment was performed according to the published literature. Briefly, H1975 and A431 cells were seeded in 96-well plates, and allowed to adhere overnight followed by treated with gradient concentrations of the test compounds for 72 h. […] The IC50 values were obtained by using the Logit method and reported as the mean ± SD from three independent determinations.

Data set [3] deals with H1975 cells (expressing EGFR^L858R/T790M). Briefly: Sulforhodamine B (SRB) cellular antiproliferation assay, H1975. Format: cell-based. Particulars: for IC50: Homo sapiens, NCI-H1975, SRB assay, 72 h, mean ± SD, read-out: Cellular Antiproliferative Activity (IC50, nM) H1975; for Cellular Selectivity A431:H1975: ratio IC50 A431 : H1975.
Description: as §2, §3
A general note: The SRB assay estimates cell density from bound dye.

The test system of data set [4] is phosphorylation of EGFR^L858R/T790M, AKT and ERK in H1975 cells. Put plainly: Western blot analysis of EGFR and downstream signaling phosphorylation, H1975. The data set is classed as cell-based. Particulars: 2 h incubation, EGF 50 ng/mL 10 min. As to the method: (§4) Cells were starved in serum-free medium for 24 h before incubation of indicated concentrations of compounds 20a and 8 (positive control) and harvested after stimulation by EGF (50 ng/mL) for 10 min. Phosphorylation of EGFR and downstream signaling substrates was examined by Western Blot analysis. Blot source data is provided in Supplementary Fig. S1.
(§5) Western blot analysis was performed with standard procedures. Briefly, H1975 and A431 cell lines were seeded in six-well plates, starved in serum-free medium for 24 h, followed by incubation for 2 h in the presence of different concentrations of compounds 20a and 8 (as positive control). Cells were stimulated by the addition of EGF (50 ng/mL, R&D Systems, US) for 10 min, then washed with PBS and lysed in SDS lysis buffer. Antibodies against p-EGFR (Y1068; #3777 S), EGFR (#4267 S), p-ERK (T202/Y204; #4370 L), ERK (#4695 S), p-AKT (Ser473), AKT and Tubulin were used (Cell Signaling Technologies, Cambridge, MA).
(In general: In western blotting, separated proteins are transferred to a membrane and probed.)

Data set [5] relates to activation of EGFR^WT in A431 cells. Briefly: Western blot analysis of EGFR phosphorylation, A431. The data set is classed as cell-based. As to the method:
as §4, §5

The subject of data set [6] is H1975 xenograft driven by EGFR^L858R/T790M. Put plainly: In vivo antitumor efficacy, H1975 NSCLC xenograft mouse model. Conditions: 14 days; for tumor growth inhibition (TGI): 50 mg/kg orally once per day, final day vs vehicle, P < 0.05. Also noted: species or system nude mice. The method, then:
H1975 cells were implanted as described in Methods. […] H1975 xenograft mouse model tumor volumes (A) and body weights (B) were recorded every two or three days. All values represent mean ± SEM.
All experimental procedures involving animals were performed in accordance with the ethical guidelines from Shanghai Laboratory Animal Public Service Center and Animal Ethics Committee of the East China University of Science and Technology. The whole experimental protocol was also approved by the Animal Ethics Committee of the East China University of Science and Technology. All 4–6 weeks old nude mice were purchased from Shanghai Slac Laboratory Animal Co. Ltd (The license of experimental animal: SCXK (shanghai) 2012–0002). The mice were maintained under the 12 hour light/dark cycles condition in the specific pathogen free (SPF) cleanroom with fresh air (more than 50%), appropriate temperature (22–26 °C) and humidness (40–60%). All materials and containers were disinfected and sterilized before use. Nude mice, aged 4–6 weeks, were inoculated subcutaneously into the right flank with H1975 NSCLC cells (approximately 2 × 10^6 cells/mouse). When the tumor size reached a volume of ~200−400 mm^3, animals were randomly assigned into control and treated groups (n = 3/group). […] The sizes of tumor volume (V) were measured every two or three days by using vernier caliper, and were calculated with the formula V = (L × W^2)/2, where L and W stands for length and width, respectively.

For data set [7], the target named is T2, EGFR^L858R/T790M. Also noted: method as in PMID 27396610. Conditions: previously reported; cited from earlier work.

T2 sequence (P00533 712-979 T790M/L858R limits assumed): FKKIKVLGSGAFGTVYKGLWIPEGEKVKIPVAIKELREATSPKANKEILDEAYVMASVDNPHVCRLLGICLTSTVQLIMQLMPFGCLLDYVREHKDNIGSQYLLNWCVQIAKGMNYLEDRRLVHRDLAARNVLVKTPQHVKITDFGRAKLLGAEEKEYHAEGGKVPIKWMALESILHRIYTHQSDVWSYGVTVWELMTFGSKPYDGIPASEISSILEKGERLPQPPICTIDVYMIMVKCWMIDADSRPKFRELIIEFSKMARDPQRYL
T1 sequence (P00533 712-979 limits assumed): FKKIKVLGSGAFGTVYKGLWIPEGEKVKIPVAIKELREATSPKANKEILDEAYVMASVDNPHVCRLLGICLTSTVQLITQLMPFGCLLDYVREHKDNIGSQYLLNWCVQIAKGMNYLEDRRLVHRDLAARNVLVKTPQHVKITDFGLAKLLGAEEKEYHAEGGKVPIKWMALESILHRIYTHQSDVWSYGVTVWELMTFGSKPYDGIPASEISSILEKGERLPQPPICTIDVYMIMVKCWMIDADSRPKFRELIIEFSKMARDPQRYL

On to `C=CC(=O)Nc1cccc(N2C(=O)OC(C)c3cnc(Nc4ccc(N5CCN(C)CC5)cc4OC)nc32)c1` (centres unmarked) [16a, N-(3-(7-((2-Methoxy-4-(4-methylpiperazin-1-yl)phenyl)amino)-4-methyl-2-oxo-2H-pyrimido[4,5-d][1,3]oxazin-1(4H)-yl)phenyl)acrylamide], for which the IC50 at EGFR^WT came to 38 nM; on EGFR^L858R/T790M [1] it was 5.4 nM; in data set [2], 821 ± 162 nM; in data set [3], 400 ± 257 nM. For the same molecule, at EGFR^L858R/T790M [1], the “Enzyme Selectivity WT:DM” value was 4–7 fold and 7 fold. In data set [3], the “Cellular Selectivity A431:H1975” value is 2.1 fold.

As for `C=CC(=O)Nc1cccc(N2C(=O)OC(CC)c3cnc(Nc4ccc(N5CCN(C)CC5)cc4OC)nc32)c1` (centres unmarked) [16b, N-(3-(4-Ethyl-7-((2-methoxy-4-(4-methylpiperazin-1-yl)phenyl)amino)-2-oxo-2H-pyrimido[4,5-d][1,3]oxazin-1(4H)-yl)phenyl)acrylamide], the IC50 was determined as 23 ± 10 nM at EGFR^WT, 6.1 nM on EGFR^L858R/T790M [1], 554 ± 285 nM in data set [2] and 200 ± 83 nM in data set [3]. Further, the “Enzyme Selectivity WT:DM” value at EGFR^L858R/T790M [1] was 4–7 fold and 3.8 fold. Also, the “Cellular Selectivity A431:H1975” value in data set [3] is given as 2.8 fold.

`C=CC(=O)Nc1cccc(N2C(=O)OC(CCC)c3cnc(Nc4ccc(N5CCN(C)CC5)cc4OC)nc32)c1` (centres unmarked) [16c, N-(3-(7-((2-Methoxy-4-(4-methylpiperazin-1-yl)phenyl)amino)-2-oxo-4-propyl-2H-pyrimido[4,5-d][1,3]oxazin-1(4H)-yl)phenyl)acrylamide]: the IC50 on EGFR^WT came out at 224 ± 41 nM; on EGFR^L858R/T790M [1], 158 ± 27 nM; in data set [2], 2110 ± 877 nM; in data set [3], 1340 ± 791 nM. In addition, the “Enzyme Selectivity WT:DM” value at EGFR^L858R/T790M [1] is on record as 1.4 fold. Moreover, the “Cellular Selectivity A431:H1975” value in data set [3] came out at 1.6 fold.

Regarding `C=CC(=O)Nc1cccc(N2C(=O)OC(C(C)C)c3cnc(Nc4ccc(N5CCN(C)CC5)cc4OC)nc32)c1` (centres unmarked) [16d, N-(3-(7-((2-Methoxy-4-(4-methylpiperazin-1-yl)phenyl)amino)-2-oxo-4-isopropyl-2H-pyrimido[4,5-d][1,3]oxazin-1(4H)-yl)phenyl)acrylamide], the IC50 on EGFR^WT is 183 ± 47 nM; at EGFR^L858R/T790M [1], 217 ± 86 nM; in data set [2], 1160 ± 279 nM; in data set [3] it was 1110 ± 748 nM. The “Enzyme Selectivity WT:DM” value at EGFR^L858R/T790M [1] is given as 0.8 fold. The “Cellular Selectivity A431:H1975” value in data set [3] was 1.0 fold.

Regarding `C=CC(=O)Nc1cccc(N2C(=O)OCc3cnc(Nc4ccc(N5CCN(C)CC5)cc4OC)nc32)c1` [16e, N-(3-(7-((2-Methoxy-4-(4-methylpiperazin-1-yl)phenyl)amino)-2-oxo-2H-pyrimido[4,5-d][1,3]oxazin-1(4H)-yl)phenyl)acrylamide], the IC50 at EGFR^WT is 24 nM; on EGFR^L858R/T790M [1], 7.3 nM; in data set [2], 1070 ± 241 nM; in data set [3] it was 222 ± 84 nM. Further, on EGFR^L858R/T790M [1], the “Enzyme Selectivity WT:DM” value turned out to be 3.3 fold. Besides, the “Cellular Selectivity A431:H1975” value in data set [3] is given as 4.8 fold.

With `C=CC(=O)Nc1cccc(N2C(=O)OC(C)(C)c3cnc(Nc4ccc(N5CCN(C)CC5)cc4OC)nc32)c1` [20a, N-(3-(7-((2-Methoxy-4-(4-methylpiperazin-1-yl)phenyl)amino)-4,4-dimethyl-2-oxo-2H-pyrimido[4,5-d][1,3]oxazin-1(4H)-yl)phenyl)acrylamide], the IC50 at EGFR^WT amounted to 156 nM. For the same molecule, on EGFR^L858R/T790M [1], the IC50 was determined as 4.5 nM and the “Enzyme Selectivity WT:DM” value is listed as approximately 35 fold. In addition, the IC50 in data set [2] came out at 1270 nM. Further, in data set [3], the IC50 was found to be 135 nM and the “Cellular Selectivity A431:H1975” value is recorded as 9.4 fold. In addition, in data set [4], the “concentration inhibiting ERK phosphorylation” value stood at 100 nM, the “concentration inhibiting phosphorylation of AKT” value is reported as 10 nM and the “concentration inhibiting phosphorylation of EGFR^L858R/T790M” value came to 10 nM. The “concentration at which obvious effect on EGFR activation appears” value in data set [5] came out at 1 µM. The “tumor growth inhibition (TGI)” value in data set [6] is 71%. Also, the “effect on body weight / tolerability” value in data set [6] (50 mg/kg/day orally) is listed as “no obvious effect on the body weight”.

For the molecule `C=CC(=O)Nc1cccc(N2C(=O)OC(CC)(CC)c3cnc(Nc4ccc(N5CCN(C)CC5)cc4OC)nc32)c1` [20b, N-(3-(4,4-Diethyl-7-((2-methoxy-4-(4-methylpiperazin-1-yl)phenyl)amino)-2-oxo-2H-pyrimido[4,5-d][1,3]oxazin-1(4H)-yl)phenyl)acrylamide], the IC50 on EGFR^WT is more than 1000 nM; at EGFR^L858R/T790M [1] it was more than 1000 nM; in data set [2], 7040 ± 455 nM; in data set [3], 3710 ± 1370 nM. Also, the “Cellular Selectivity A431:H1975” value in data set [3] came out at 1.9 fold.

Turning to `C=CC(=O)Nc1cccc(N2C(=O)OC(CCC)(CCC)c3cnc(Nc4ccc(N5CCN(C)CC5)cc4OC)nc32)c1` [20c, N-(3-(7-((2-Methoxy-4-(4-methylpiperazin-1-yl)phenyl)amino)-2-oxo-4,4-dipropyl-2H-pyrimido[4,5-d][1,3]oxazin-1(4H)-yl)phenyl)acrylamide], the IC50 was more than 1000 nM on EGFR^WT, more than 1000 nM on EGFR^L858R/T790M [1], 6400 ± 349 nM in data set [2] and 9390 ± 1740 nM in data set [3]. For the same molecule, the “Cellular Selectivity A431:H1975” value in data set [3] is 0.7 fold.

As for `C=CC(=O)Nc1cccc(Nc2nc(Nc3ccc(N4CCN(C(C)=O)CC4)cc3OC)ncc2C(F)(F)F)c1` [compound 7, CO-1686, reference compound], the figures for the IC50 in data set [2] and in data set [3] were 1120 ± 117 nM and 73 ± 21 nM, respectively. Further, the “tumor growth inhibition (TGI)” value in data set [6] was 72%.

For `C=CC(=O)Nc1cccc(-n2c(=O)c(=O)n(C)c3cnc(Nc4ccc(N5CCN(C)CC5)cc4OC)nc32)c1` [compound 9], the “selectivity EGFR^L858R/T790M kinase over EGFR^WT kinase” value on EGFR^L858R/T790M [7] is recorded as 101 fold.
